Experimental findings from the ASAP Discovery antiviral challenge data (2025) are described below.

Several values for one entry are separate records, joined by “and”; a condition that tells them apart may be missing. Equal entries are not always repeated.

Conditions in the first data set: not given
Take `CC(C)(C)[C@H](Nc1ncnc2[nH]c(-c3cnn(CC(N)=O)c3)cc12)c1ccc2c(c1)OCCO2` (single isomer, unassigned): the logD was 3 and 3.1.
Molecule `O=C(/C=C/c1ccccc1)C(=O)N1CCN(CCc2ccccc2)CC1` yielded a logD of 3.3.
As for `COCCNC(=O)[C@H](Nc1ccc2c(c1)CNC2)c1cc(Cl)cc(C2CC2)c1` (single isomer, unassigned), the logD stood at 1.
Molecule `CNC(=O)c1cc2c(N[C@H](c3ccc4c(c3)S(=O)(=O)CCC4)C(C)C)ncnc2[nH]1` (racemic) came in with a logD of 2.4.
Same read-out and setting: with `CC(C)[C@H](Nc1ncnc2[nH]c(-c3cnn(C)c3)cc12)c1ccc2c(c1)S(=O)(=O)CCC2` (single isomer, unassigned) the figure was 2.9 and 3.2; with `O=C(Nc1ccc2c(c1)CNC2)c1cc(F)cc(-c2cn[nH]c2)c1`, 0.7; with `NCc1cccc(NC(=O)[C@@H](NC(=O)OCc2ccccc2)c2ccc(OCc3ccccc3)cc2)c1`, 3.2.
For the molecule `CNC(=O)c1c[nH]c2ncnc(N[C@H](c3ccc4c(c3)S(=O)(=O)CCC4)C(C)C)c12` (racemic), the logD was 2.5.
In the case of `CNC(=O)c1cc2c(N[C@H](c3ccc4c(c3)NC(=O)CO4)C(C)C)ncnc2[nH]1` (racemic), the logD turned out to be 2.8.
Regarding `O=C(Nc1ccc2c(c1)CNC2)c1cccc2[nH]c(C(F)(F)F)cc12`, the logD worked out at 1.5.
Molecule `Cn1ncc(-c2cc3c(N[C@H](c4ccc5c(n4)OCCO5)C(C)(C)C)ncnc3[nH]2)c1C#N` (single isomer, unassigned) gave a logD of 3.3.
`CC(C)(C)[C@H](Nc1ncnc2[nH]c(-c3cnn(CC(N)=O)c3)cc12)c1ccc2c(c1)OCCO2` (racemic) had a logD of 3.2.
The same measure, in the same setting: next, `CN(c1ccc2c(c1)CNC2)[C@H](C(=O)NCC(F)F)c1cc(Cl)cc(C2CC2)c1` (racemic): 1.6; `CC(C)[C@H](Nc1ncnc2[nH]c(-c3cnn(C)c3C#N)cc12)c1ccc2c(c1)S(=O)(=O)CCC2` (racemic): 3.6.
In turn, `Cn1ncc(-c2cc3c(N[C@H](c4ccc5c(c4)OCCO5)C(C)(C)C)ncnc3[nH]2)c1C#N` (racemic) displayed a logD of 2.9.
Still for that read-out and setting: with `CC(C)[C@H](Nc1ncnc2[nH]c(-c3ccc4cncn4c3)cc12)c1ccc2c(c1)S(=O)(=O)CCC2` (racemic) the figure was 4.
Still for that read-out and setting: next, `CC(C)[C@H](Nc1ncnc2[nH]c(-c3cnn(CC(N)=O)c3)cc12)c1ccc2c(c1)OCCO2` (racemic): 0.9.
For the molecule `COCCNC(=O)c1c[nH]c2ncnc(N[C@H](c3ccc4c(c3)S(=O)(=O)CCC4)C(C)C)c12` (racemic), the logD worked out at 2.8.
`CCNC(=O)c1cc2c(N[C@H](c3ccc4c(c3)OCCO4)C(C)C)ncnc2[nH]1` (racemic) came in with a logD of 3.
In turn, `CC(C)[C@H](Nc1ncnc2[nH]c(-c3cnn(C)c3)cc12)c1ccc2c(c1)S(=O)(=O)CCC2` (racemic) displayed a logD of 3.3.
`CC(C)[C@H](Nc1ncnc2[nH]c(-c3cnn(CC(N)=O)c3)cc12)c1ccc2c(n1)OCCO2` (single isomer, unassigned): the logD is 2.3 and 2.4.
On the same count and under the same terms, next, `N#Cc1cc2c(cc1NC(=O)c1cc(F)cc3[nH]ncc13)CNC2`: 0.6.
`CNCc1cc(-c2cc3c(N[C@H](c4ccc5c(c4)S(=O)(=O)NCC5)C(C)C)ncnc3[nH]2)co1` (racemic) registered a logD of 1.9.
On to `CC(C)[C@H](Nc1ncnc2[nH]c(-c3cnn(CC(N)=O)c3)cc12)c1ccc2c(c1)S(=O)(=O)CCC2` (single isomer, unassigned), for which the logD was 2.1 and 2.

The conditions of a further data set: mouse; liver_microsomes.
Consider `CNC(=O)c1cc(Cl)ccc1NS(=O)(=O)c1ccc(Oc2ccccc2Cl)cc1`, for which the microsomal CLint worked out at 94 µL/min/mg.
As for `CC(C)[C@H](Nc1ncnc2[nH]c(-c3cnn(C)c3C#N)cc12)c1ccc2c(c1)S(=O)(=O)CCC2` (single isomer, unassigned), the microsomal CLint was 311 µL/min/mg and 709 µL/min/mg.
Molecule `CC(C)[C@H](Nc1ncnc2[nH]c(-c3cnn(CC(N)=O)c3)cc12)c1ccc2c(c1)S(=O)(=O)CCC2` (racemic) yielded a microsomal CLint of 61 µL/min/mg.
Turning to `CC(C)[C@H](Nc1ncnc2[nH]cc(C(=O)NC3CC3)c12)c1ccc2c(c1)S(=O)(=O)CCC2` (racemic), the microsomal CLint came to 234 µL/min/mg.
The molecule `CNC(=O)c1c[nH]c2ncnc(N[C@H](c3ccc4c(c3)OCCO4)C(C)C)c12` (racemic) returned a microsomal CLint of 88 µL/min/mg.
The same measure, in the same setting: next, `CC(C)(C)[C@H](Nc1ncnc2[nH]c(-c3cnn(CC(N)=O)c3)cc12)c1ccc2c(n1)OCCO2` (racemic): 31 µL/min/mg.
Molecule `CC(C)[C@H](Nc1ncnc2[nH]c(-c3ccc4nnn(C)c4c3)cc12)c1ccc2c(c1)S(=O)(=O)CCC2` (racemic) registered a microsomal CLint of 219 µL/min/mg.
The molecule `CC(C)[C@H](Nc1ncnc2[nH]c(-c3cncc(S(C)(=O)=O)c3)cc12)c1ccc2c(c1)S(=O)(=O)CCC2` (racemic) had a microsomal CLint of 272 µL/min/mg.
`CC(C)(C)[C@H](Nc1ncnc2[nH]c(-c3cnn(CC(N)=O)c3)cc12)c1ccc2c(c1)OCCO2` (single isomer, unassigned): the microsomal CLint was 44 µL/min/mg and 39 µL/min/mg.
`O=C(/C=C/c1ccccc1)C(=O)N1CCN(CCc2ccccc2)CC1`: the microsomal CLint came out at 181 µL/min/mg.
For `COCCNC(=O)[C@H](Nc1ccc2c(c1)CNC2)c1cc(Cl)cc(C2CC2)c1` (single isomer, unassigned), the intrinsic clearance (microsomal CLint) turned out to be 11.7 µL/min/mg.
`CNC(=O)c1cc2c(N[C@H](c3ccc4c(c3)S(=O)(=O)CCC4)C(C)C)ncnc2[nH]1` (racemic) came in with a microsomal CLint of 46 µL/min/mg.
In the case of `CC(C)[C@H](Nc1ncnc2[nH]c(-c3cnn(C)c3)cc12)c1ccc2c(c1)S(=O)(=O)CCC2` (single isomer, unassigned), the microsomal CLint was 255 µL/min/mg and 140 µL/min/mg.
`O=C(Nc1ccc2c(c1)CNC2)c1cc(F)cc(-c2cn[nH]c2)c1` registered a microsomal CLint of 553 µL/min/mg.
As to `NCc1cccc(NC(=O)[C@@H](NC(=O)OCc2ccccc2)c2ccc(OCc3ccccc3)cc2)c1`, the microsomal CLint turned out to be 1 µL/min/mg.
For `CNC(=O)c1c[nH]c2ncnc(N[C@H](c3ccc4c(c3)S(=O)(=O)CCC4)C(C)C)c12` (racemic), the microsomal CLint worked out at 192 µL/min/mg.
